Results on 1 compound are retold here after PMC8219408, “Switching Cytolytic Nanopores into Antimicrobial Fractal Ruptures by a Single Side Chain Mutation” (ACS nano, 2021).

≈ marks a conversion by molar mass, not a printed value. Peptide text beside a SMILES is read from it.

Usually Kd stands for the concentration at which binding is half-saturated.

The test system of one series is M. luteus (ATCC 49732). The series is classed as cell-based. Conditions: ATCC 49732, 24 h. The protocol:
(§1) MIC values were obtained using broth microdilution against different bacteria following the protocols by Clinical and Laboratory Standards Institute. Specifically, each bacterium (100 μL of 0.5–1 × 10^6 CFU per ml) in Mueller Hinton media broth (Oxoid) was incubated in 96-well microtiter plates at 37 °C on a 3D orbital shaker. 100 μL of serial twofold peptide dilutions (from 100 to 0 μM) were used. Following peptide addition, absorbance (600 nm) was measured in a SpectraMax i3x multi-mode microplate reader (Molecular Devices). The lowest peptide concentrations inhibiting visible bacterial growth after 24 h at 37 °C was defined as MICs. All tests were performed in triplicate.

Another series concerns S. aureus (ATCC 6538). The series is classed as cell-based. Conditions: ATCC 6538, 24 h. The protocol:
as §1

In series [1] the test system is K. pneumoniae (NCTC 5055). The series is classed as cell-based. Conditions: NCTC 5055, 24 h. The procedure:
as §1

The subject of a further series is S. typhimurium (6192). The series is classed as cell-based. To be noted: 6192, 24 h. The protocol: as §1
The next series has as its system B. subtilis (ATCC 6633). Type of series: cell-based. To be noted: ATCC 6633, 24 h. The protocol: as §1
Another series relates to E. coli (ATCC 15597). The series is classed as cell-based. To be noted: ATCC 15597, 24 h. The procedure:
as §1

Series [2] relates to P. aeruginosa (ATCC 27853). The series is classed as cell-based. Conditions: ATCC 27853, 24 h. The procedure: as §1
The test system of a further series is Human erythrocytes. Put plainly: Hemolysis assay. Type of series: cell-based. Conditions: 250 µM, pH 7.2. The protocol:
For hemolysis measurements 10% (vol/vol) suspensions of human erythrocytes with peptides were used. Phosphate buffer saline (PBS, 10 mM, pH 7.2) was used to rinse human red blood cells (4x) using repeated centrifugation and re-suspension (3 min, 3000 × g). The cells were incubated for 1 h at room temperature in deionized water (fully hemolysed control), with peptide in PBS or just PBS, which was followed by centrifugation (5 min, 10000 × g). The obtained supernatant was then separated from the pellet, and absorbance (550 nm) was measured in a SpectraMax i3x multi-mode microplate reader (Molecular Devices). Absorbance obtained for the suspension that was treated with deionized water gave complete (100%) hemolysis. Table S1 summarises the results, with the values corresponding to % hemolysis for peptide at 250 μM. All tests were performed in triplicate.

The target of series [3] is DLPC/DLPG (3:1 molar ratio) unilamellar vesicles. The experiment in a line: Isothermal titration calorimetry, anionic vesicles. Conditions: ITC, peptide (500 μM) titrated into DLPC/DLPG (3:1) vesicles (380 μM total lipid), 25 °C, one-set binding model, duplicate; read-out: dissociation constant (KD). The procedure:
The lipids used for the assembly of unilamellar vesicles were from Avanti Polar Lipids: 1,2-dilauroylphosphatidylcholine (DLPC) was used for zwitterionic vesicles, while its mixture with 1,2-dilauroyl-sn-glycero-3-phospho-(1’-rac-glycerol) (DLPG) at a 3:1 molar ratio was used for anionic vesicles. After weighting up the lipid aliquots were dissolved in chloroform and dried under a nitrogen stream until a thin film was formed. The obtained film was subjected to hydration in 10 mM phosphate buffer (pH 7.4), which was followed by vortexing (1x, 2 min) and sonication (1x, 30 min). A hand-held extruder (Avanti Polar lipids) was used to extrude the resulting suspension (29x, polycarbonate filter, 0.05 μm) until a clear solution containing small unilamellar vesicles (SUV) was obtained. The SUVs were then analysed (50 nm) using a Zetasizer Nano (ZEN3600, Malvern Instruments, UK) and re-suspended to a final concentration of 1 mg/mL. The measurements were performed using a low volume disposable cuvette at 25°C. […]
A Microcal isothermal titration calorimeter-200 (ITC-200) was used to carry out all ITC experiments. […] Binding isotherms were recorded for peptides (500 μM) titrated into unilamellar phospholipid vesicles (380 μM, total lipid) in the cell. […]
On the technique in general: ITC needs no label: the signal is the heat of the interaction.

For the compound `CC(C)C[C@H](NC(=O)[C@H](CCCNC(=N)N)NC(=O)[C@H](CC(C)C)NC(=O)[C@H](CCCCN)NC(=O)[C@H](CC(C)C)NC(=O)[C@H](CCCNC(=N)N)NC(=O)[C@H](CC(C)C)NC(=O)[C@H](CC(C)C)NC(=O)[C@@H](N)CCCNC(=N)N)C(N)=O` [bienK9] (H-RLLRLKLRL-NH2; N-terminus assumed), the Minimum inhibitory concentration is 1.5 µM (≈ 1.77 µg/mL) in the series with M. luteus (ATCC 49732); 12 µM (≈ 14.2 µg/mL) with S. aureus (ATCC 6538); > 50 µM in series [1]; 50 µM (≈ 59 µg/mL) in the series on S. typhimurium (6192); 3 µM (≈ 3.54 µg/mL) with B. subtilis (ATCC 6633); 3 µM (≈ 3.54 µg/mL) in the series on E. coli (ATCC 15597). For the same compound, the Minimum inhibitory concentration in [2] came to 6 µM (≈ 7.08 µg/mL). The “% hemolysis, at 250 μM” value in the series on Human erythrocytes was 0%. Also, the Kd in series [3] was 2.12 µM.
